Test results as given in ChEMBL document CHEMBL5653603 (J Am Chem Soc, 2010).
pIC50: −log10 of the molar value. Active and inactive are the calls of the source. The calls are words filed in the database; no cut-off is given here.

Tests used:
[1] = organism: Homo sapiens; assay: Selectivity ratio of IC50 for recombinant human HDAC1 to IC50 for recombinant human HDAC6
[2] = target: Histone deacetylase 1 (Homo sapiens, UniProt Q13547); assay: Inhibition of recombinant human HDAC1 using fluorogenic RHKKAc peptide as substrate by fluorescence assay; type: single protein
Sequence of Histone deacetylase 1 (Q13547 whole entry): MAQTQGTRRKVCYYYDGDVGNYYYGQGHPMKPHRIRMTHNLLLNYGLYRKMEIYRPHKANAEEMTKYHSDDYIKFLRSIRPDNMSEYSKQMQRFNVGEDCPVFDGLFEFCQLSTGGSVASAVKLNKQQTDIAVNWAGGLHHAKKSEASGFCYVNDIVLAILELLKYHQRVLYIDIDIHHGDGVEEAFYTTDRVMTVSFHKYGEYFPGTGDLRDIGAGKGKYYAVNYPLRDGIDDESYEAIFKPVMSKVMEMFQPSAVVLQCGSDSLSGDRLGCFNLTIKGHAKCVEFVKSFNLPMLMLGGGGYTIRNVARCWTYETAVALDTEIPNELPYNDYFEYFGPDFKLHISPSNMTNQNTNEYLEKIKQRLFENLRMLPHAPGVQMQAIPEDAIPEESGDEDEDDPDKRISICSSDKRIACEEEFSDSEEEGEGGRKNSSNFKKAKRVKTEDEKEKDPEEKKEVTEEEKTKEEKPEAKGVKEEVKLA

[3] = target: T1, Protein deacetylase HDAC6 (Homo sapiens, UniProt Q9UBN7); assay: Inhibition of recombinant human HDAC6 using fluorogenic RHKKAc peptide as substrate by fluorescence assay
T1 sequence (Q9UBN7 whole entry): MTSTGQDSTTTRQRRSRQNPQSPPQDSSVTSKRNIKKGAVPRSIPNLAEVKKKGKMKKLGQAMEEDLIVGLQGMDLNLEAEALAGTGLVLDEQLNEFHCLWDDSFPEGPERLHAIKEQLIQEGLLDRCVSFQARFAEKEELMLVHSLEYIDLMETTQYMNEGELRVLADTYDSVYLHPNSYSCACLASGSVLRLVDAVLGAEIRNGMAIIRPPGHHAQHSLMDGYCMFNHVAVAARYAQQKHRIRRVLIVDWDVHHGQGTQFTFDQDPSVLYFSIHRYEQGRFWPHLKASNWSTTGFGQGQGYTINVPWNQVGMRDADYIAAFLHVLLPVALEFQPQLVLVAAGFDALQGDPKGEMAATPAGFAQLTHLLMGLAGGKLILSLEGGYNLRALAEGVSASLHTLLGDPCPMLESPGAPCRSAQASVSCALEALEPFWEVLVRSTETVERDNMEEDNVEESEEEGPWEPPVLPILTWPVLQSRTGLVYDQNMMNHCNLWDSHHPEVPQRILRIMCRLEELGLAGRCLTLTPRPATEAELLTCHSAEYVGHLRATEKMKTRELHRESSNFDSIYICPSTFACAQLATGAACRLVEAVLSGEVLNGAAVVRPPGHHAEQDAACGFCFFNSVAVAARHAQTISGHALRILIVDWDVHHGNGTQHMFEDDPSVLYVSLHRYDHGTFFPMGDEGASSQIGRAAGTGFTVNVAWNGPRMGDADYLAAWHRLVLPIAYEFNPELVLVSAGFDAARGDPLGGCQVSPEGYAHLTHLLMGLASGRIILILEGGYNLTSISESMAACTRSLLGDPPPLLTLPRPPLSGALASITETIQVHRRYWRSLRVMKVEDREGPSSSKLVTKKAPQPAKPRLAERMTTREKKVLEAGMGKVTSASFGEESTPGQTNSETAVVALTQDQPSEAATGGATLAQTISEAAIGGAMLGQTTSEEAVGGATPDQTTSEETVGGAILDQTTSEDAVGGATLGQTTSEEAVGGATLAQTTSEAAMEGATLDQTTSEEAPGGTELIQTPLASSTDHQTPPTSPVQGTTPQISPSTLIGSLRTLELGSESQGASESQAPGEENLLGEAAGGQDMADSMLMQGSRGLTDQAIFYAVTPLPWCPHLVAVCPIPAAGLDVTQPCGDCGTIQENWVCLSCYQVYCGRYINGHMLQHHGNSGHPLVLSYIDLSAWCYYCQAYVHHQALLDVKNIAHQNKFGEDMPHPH

[4] = Inhibition of class 1 HDAC in Sprague-Dawley rat primary cortical neurons assessed as induction of histone hyperacetylation at 10 uM measured after 30 mins by Western blot analysis; type: cell-based; settings: primary cortical neuron, 0.5 h
[5] = Neurotoxicity against Sprague-Dawley rat primary cortical neurons assessed as reduction in neuron survival at 1 to 10 uM measured after 24 hrs by MTT assay; type: toxicity, cell-based; settings: cortical neurone, dose 1-10 µM
[6] = system: Cortical neurone; assay: Neuroprotective activity against HCA-induced Sprague-Dawley rat primary cortical neuron death assessed as increase in neuron survival measured after 24 hrs by MTT assay; type: functional, cell-based; settings: dose 1-10 µM
[7] = system: Primary cortical neuron; assay: Inhibition of HDAC6 in Sprague-Dawley rat primary cortical neurons assessed as induction of alpha-tubulin hyperacetylation at 2.5 uM measured after 30 mins by Western blot analysis; type: cell-based
[8] = system: Cortical neurone; assay: Neuroprotective activity against HCA-induced Sprague-Dawley rat primary cortical neuron death assessed as increase in neuron survival at 0.5 uM measured after 24 hrs by MTT assay; type: functional, cell-based

| SMILES | pIC50 [2] | pIC50 [3] | other results |
| --- | --- | --- | --- |
| O=C(CCCCCn1c2ccccc2c2ccccc21)NO | 4.85 | 7.21 | Ratio IC50 [1]: 226 |
| CN1CCc2c(c3ccccc3n2Cc2ccc(C(=O)NO)cc2)C1.O=C(O)C(F)(F)F | – | – | inhibition (INH) [4]: Active; Activity [5]: Non-Toxic; Activity [6]: Dose-Dependent Effect; inhibition [7]: Active |
| O=C(Cc1ccc(Cn2c3ccccc3c3ccccc32)cc1)NO | < 4.52 | 6.52 | – |
| O=C(NO)c1ccc(CCn2c3ccccc3c3ccccc32)cc1 | < 4.52 | 6.74 | – |
| CN1CCc2c(n(Cc3ccc(C(=O)NO)cc3)c3ccccc23)C1 | 5.29 | 9.00 | Ratio IC50 [1]: 3700 |
| CN1CCc2c(n(CCCCCC(=O)NO)c3ccccc23)C1 | < 4.52 | 6.26 | – |
| O=C(CCCCCn1c2c(c3ccccc31)CCCC2)NO | 5.07 | 7.05 | – |
| CC(/C=C/C(=O)NO)=C\[C@@H](C)C(=O)c1ccc(N(C)C)cc1 [TRICHOSTATIN] | – | – | Activity [5]: Toxic; Activity [8]: Active |
| CN1CCc2c(c3ccccc3n2CCCCCC(=O)NO)C1 | 4.60 | 6.67 | – |
| O=C(CCCCCCC(=O)Nc1ccc([C@H]2O[C@@H](CSc3nc(-c4ccccc4)c(-c4ccccc4)o3)C[C@@H](c3ccc(CO)cc3)O2)cc1)NO | – | – | inhibition [7]: Active |
| O=C(NO)n1c2ccccc2c2ccccc21 | < 4.52 | < 4.52 | – |
| O=C(CCn1c2ccccc2c2ccccc21)NO | < 4.52 | – | – |
| O=C(NO)c1ccc(Cn2c3ccccc3c3ccccc32)cc1 | 4.96 | – | Ratio IC50 [1]: 574 |
